Columns and labels:
MCF-7 cells [1] = assay: APOPercentage assay, apoptosis in MCF-7 cells; format: cell-based, human; conditions: 10 μM
Method: (§1) FIG. 5: Cholesterol depletion by PL and AP. BJ, BT20 and MCF-7 cells were treated with 10 μM PL or AP for 2 h and cholesterol levels were determined with the Amplex Red Cholesterol kit as per manufacturer's instructions. Cells treated with 5 mg/ml MBCD was used as a positive control and fluorescence was measured with a Tecan plate reader. MCF-7 cells were pre-incubated with 1 mM cholesterol for 1 h followed by treatment with 10 μM PL or AP for 2 h (A). Apoptosis was determined by flow cytometry with the APOPercentage kit or Cells treated with MBCD and 5 mM H2O2 served as positive controls (B). Values represent the means±SD of three independent experiments.
Next we asked if addition of cholesterol can rescue MCF-7 cells from undergoing apoptosis when treated with PL or AP.

MCF-7 cells [2] = assay: Mitochondrial Outer Membrane Potential (MOMP) by flow cytometry; format: cell-based, human; conditions: 10 μM PL, AP; 100 mM H2O2 positive control; versus untreated cells
Method: FIG. 2: Mode of induction in MCF-7 cells after treatment with AP and PL was determined by measuring changes in MOMP and levels of apoptosis-associated proteins. The cells were incubated with 10 μM AP and PL for different time intervals to capture the timeline of apoptosis induction in MCF-7 cells. The changes in MOMP were measured using flow cytometry after treating MCF-7 cells with PL and AP for 1, 2 and 4 h (A). The alteration in expression of several apoptosis-associated proteins were determined using western blotting after incubating MCF-7 cells for 1, 2, 4, 6 h with PL (C, E) and AP (D. F).
The changes in Mitochondrial Outer Membrane Potential (MOMP) and proteins involved in the apoptotic cascade were assessed (FIG. 2).

MCF-7 tumors = assay: Efficacy in MCF-7 xenograft nude mouse model of BC; format: in vivo, nude mice; conditions: 21 days
Method: FIG. 3: Comparative efficacy and toxicity study in MCF-7 xenograft nude mouse model of BC. The efficacy of single i.p. injection of vehicle, PL (2 mg/kg) and AP (5 mg/kg) in 5 mice in each group was compared over a period of 21 days.
MCF-7 tumors grown up to 300 mm3 in four nude mice were harvested, dissected into 1-2 mm3 fragments and implanted into the study group for further testing. Nude mice (with tumor volume of 150 mm3) were treated with 25% Polyethylene glycol (PEG) 400 as vehicle, 2 mg/kg PL and 5 mg/kg AP for 21 days during which tumor volume, body weight and, at the time of sacrifice, tumor weight was measured.

MCF-7 cells [3] = assay: Total cholesterol in cells, Amplex Red Cholesterol kit; format: cell-based, human; conditions: 10 μM, within 2 h, compared to untreated cells
Method: as §1
Next, we determined the effects of PL and AP on cholesterol levels in cells. Within 2 h of treatment with PL or AP, total cholesterol was reduced by 35% in MCF-7 cells as compared to untreated cells (FIG. 5). To test whether cholesterol depletion occurred in other cell types or if this was limited to ER positive BC cells, BJ and BT20 cells were also treated with PL or AP (Fig.).

BJ CETP siRNA cells = assay: Cholesterol levels in BJ CETP siRNA cells; format: cell-based, human; conditions: treated with PL or AP or left untreated
MCF-7 CETP siRNA cells = assay: MMP, caspase-3/7 activity and apoptosis in CETP knockdown MCF-7 cells; format: cell-based, human; conditions: for caspases-3/7 activity / increase of level of apoptosis: 10 μM PL or AP; for caspases-3/7 activity: CETP knockdown; for increase of level of apoptosis: MCF-7 CETP siRNA cells; for reduction in MMP: 10 μM, CETP knockdown compared to Ctrl siRNA cells
Method: FIG. 10: The effect of CETP mRNA silencing on MMP (A), Capase-3/7 activity (B) and apoptosis in MCF-7 (C) and BJ (D) untransfected, cntl siRNA and CETP knockout cells after treatment with 10 μM PL or AP. Values represent the means±SD of three independent experiments.
FIG. 12: The effect of CETP mRNA knockout on Capase-3/7 activity (A) and apoptosis (B) in MCF-7 cntl siRNA and CETP knockout cells after treatment with 25 μM tamoxifen for 24 h. Values represent the means±SD of three independent experiments.
Since, as shown above, CETP is required for optimal growth of MCF-7 cells, we further hypothesized that CETP may help cancer cell to resist/escape apoptotic signals thus preventing cell death. Several apoptotic markers such as MOMP, phosphatidylserine exposure and caspase-3/7 activity were tested to establish a link between CETP and apoptosis.
Next, we intended to see if CETP silencing increased sensitivity of MCF-7 cells to apoptosis.
To test if effect of CETP knockout on apoptosis in MCF-7 is limited to AP, we treated the CETP knockout MCF-7 cells with tamoxifen (a known first line drug for breast cancer treatment). […] This observation was not limited to PL and AP as similar observations were made in CETP knockdown cells treated with tamoxifen (FIG. 12).

CETP = target: T1, CETP (Homo sapiens, UniProt P11597); assay: Thermal shift assay (TSA) in MCF-7 cells; format: binding; conditions: 10 μM, two hours, 56° C. to 70° C.; untreated decreases around 64° C.
T1 construct: endogenous in cells; host or cells: MCF-7
T1 sequence (P11597 18-493): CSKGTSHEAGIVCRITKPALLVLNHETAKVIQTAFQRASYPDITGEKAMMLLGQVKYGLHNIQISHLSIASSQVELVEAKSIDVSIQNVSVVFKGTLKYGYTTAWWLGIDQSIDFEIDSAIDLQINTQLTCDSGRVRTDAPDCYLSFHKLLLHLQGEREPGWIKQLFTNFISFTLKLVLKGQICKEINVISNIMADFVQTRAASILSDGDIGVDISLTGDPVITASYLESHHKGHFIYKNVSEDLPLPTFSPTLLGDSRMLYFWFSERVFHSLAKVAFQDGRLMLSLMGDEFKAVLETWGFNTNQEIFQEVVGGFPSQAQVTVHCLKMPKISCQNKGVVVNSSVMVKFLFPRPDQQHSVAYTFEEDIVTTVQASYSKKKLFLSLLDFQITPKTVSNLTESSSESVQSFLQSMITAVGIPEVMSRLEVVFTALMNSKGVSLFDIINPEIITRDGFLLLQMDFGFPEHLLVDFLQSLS
Method: FIG. 14: Illustration of the amount of stabilized CETP protein in the presence of compounds using TSA. MCF-7 cells were left untreated (Untx) and were treated with 10 μM of AP/PL for two hours. TSA was performed using temperature range 56° C. to 70° C. with 2° C. intervals. The western blotting was performed after the assay and CETP was detected. The experiment was performed in duplicate.
Thermal shift assay (TSA) captures the drug protein binding using the fact that the thermostability of the protein is changed after ligand binding. We did three runs of TSA [20] to identify direct binding of AP with CETP (FIG. 14). […] Further studies are needed to study the effects of thermostability on function of CETP.

[4] = 2 h, after pre-incubation with 1 mM cholesterol for 1 h
[5] = 2 h, without addition of cholesterol

SMILES | level of apoptosis (MCF-7 cells [1]; 2 h) | apoptosis (MCF-7 cells [1]; [4]) | apoptosis (MCF-7 cells [1]; [5]) | level of apoptosis (MCF-7 cells [1]; 6 h) | MOMP, fluorescence in the FL-2 channel (MCF-7 cells [2]) | reduction of tumor volume (MCF-7 tumors; 2 mg/kg PL, 5 mg/kg AP) | inhibition of tumor growth (MCF-7 tumors; 5 mg/kg AP) | reduction of total cholesterol (MCF-7 cells [3]) | cholesterol levels (BJ CETP siRNA cells) | caspases-3/7 activity (MCF-7 CETP siRNA cells) | increase of level of apoptosis (MCF-7 CETP siRNA cells) | reduction in MMP (MCF-7 CETP siRNA cells) | thermostability of CETP protein (CETP) | tumor weight in comparison to vehicle (MCF-7 tumors; 2 mg/kg PL)
CC(=O)Oc1cccc2c1C(=O)C=C(C)C2=O [AP, Acetyl Plumbagin] | ~20% | negligible | 20% | ~45% | lower fluorescent values | 37% | 45% | 35% | No significant changes | significantly increased | 10% | 17% | more stable even at 70 °C | 
CC1=CC(=O)c2c(O)cccc2C1=O [PL, 5-hydroxy-2-methyl-1,4-naphthoquinone, reference compound] | ~20% | 10% | 30% | ~45% | lower fluorescent values | approximately 17% |  | 35% | No significant changes | significantly increased | 10% | 13% | more stable even at 70 °C | no difference

Source: patent US10485769B2, “Cholesteryl ester transfer protein (CETP) inhibition in the treatment of cancer” (KING ABDULLAH UNIVERSITY OF SCIENCE AND TECHNOLOGY, priority 2015, dated 2019)
